Four compounds from patent publication US6482586B1 (priority 1996, dated 2002) can be followed below.

For assay [1], the system named is glycosphingolipid synthesis. In words: Inhibition of glycolipid synthesis. The class given is cell-based. The method, then:
(§1) PPMP(1-phenyl-2-hexadecanoylamino-3-morpholino-1-propanol, Matreya Inc. , Pleasant Gap, Pa.) is a potent inhibitor of glucosylceramide synthesis (36) and thereby prevents the synthesis of most glycolipids. Experiments extablished that 27 μM PPMP was able to inhibit glycosphingolipid synthesis without inducing cell death. XF-498 astrocytoma and vero cells were then incubated at 37° C. with 27 μM PPMP in the presence and absence of 2 mM butyrate for 6-7 days.

In assay [2] the test system is XF-498 cells. In words: Morphology and growth of treated XF-498 cells. The class given is cell-based, human. Particulars: for effect on morphology of XF-498 cells: compound alone in culture medium. The method, then: (§2) XF-498 astrocytoma, ovarian tumour and vero cell lines were cultured in media containing 2 mM sodium butyrate (or propionate or capronate for astrocytoma cells).
as §1

Assay [3] deals with XF-498 cells. Description: Cell sensitization to VT by butyrate treatment. Format: cell-based, human. The conditions noted are these: for effect on XF-498 cell sensitivity to VT1 (in words): cells cultured in 2 mM propionate or capronate. The method, then: Semiconfluent cells in microtiter plates were incubated in triplicates with ten fold VT binding domain dilutions and remaining cells after 72 hr were quantitated by staining with 0.1% crystal violet and measuring the optical density at 570 nm using a microtiter plate reader (31).
as §2

For assay [4], the system named is XF-498 cells. The class given is cell-based, human.
For the next assay, the system named is Gb3 in XF-498 cells. Format: cell-based, human.
In a further assay the test system is Gb3 of XF-498 cells. Description: HPLC analysis of Gb3 fatty acid composition. The class given is cell-based, human. The conditions noted are these: butyrate treated XF-498.
Where [5] appears, read: XF-498 cells after treatment, VT1 TLC overlay.

Structures are written as SMILES. Read-outs that look alike come from different tables or passages of the source.

Method for Gb3 in XF-498 cells: After trypsinization, cells (˜1×10^6) were washed with PBS three times, resuspended in a minimum volume, and extracted with 20 volumes of chloroform/methanol (C/M) 2:1 by vol. The extract was partitioned against water and the lower phase partitioned again against theoretical upper phase. The combined lower phase was then evaporated, saponified with 1 N NaOH in methanol and glycolipids reextracted as above . The dried lower phase was dissolved in CM 98:2 and separated by silica chromatography(32). The column was washed extensively with chloroform and glycolipid eluted in acetone/methanol (9:1 by vol.). Gb3 present was detected by tlc overlay binding with VT binding domain1 (16).
Aliquots of the glycolipid extract of human tumor samples or of tumor cell lines were separated by TLC {chloroform, methanol, water-65:25:4 (v/v/v)}. The plates were dried and blocked with 1% gelatin in water at 37° C. overnight. They were then washed three times with 50 mM TBS for 5 min and incubated with 0.1 μg/ml toxin for 1 hour at R.T. After further washing with TBS, plates were incubated with mouse monoclonal anti-VT binding domain1 antibody(33) (2 μg/ml) for VT binding domain1 followed by peroxidase-conjugated goat anti-mouse antibody . Finally, the plates were washed with TBS, and toxin binding was visualized with 4-chloro-1-naphthol peroxidase substrate. A similar plate was prepared and sprayed with orcinol for comparison of glycolipid content.

Turning to `CCCCCCCCCCCCCCCC(=O)NC(CN1CCOCC1)C(O)c1ccccc1` (stereo not drawn) [PPMP, 1-phenyl-2-hexadecanoylamino-3-morpholino-1-propanol], the “concentration able to inhibit glycosphingolipid synthesis without inducing cell death” value in assay [1] amounted to 27 µM. Moreover, in the assay with XF-498 cells [2] (PPMP in presence of butyrate), the “effect on butyrate-induced morphological changes” value is on record as “prevented the butyrate-induced morphological changes”. Further, in the assay with XF-498 cells [2], the “effect on morphology of XF-498 cells” value is “no effect”. The “effect on butyrate induced VT1 sensitivity of XF-498 cells” value with XF-498 cells [3] (27 μM PPMP with 2 mM butyrate, not shown) is given as “prevented”.
For `CCCC(=O)[O-].[Na+]` [butyrate, sodium butyrate], in the assay with XF-498 cells [2], the “effect on morphology of XF-498 cells” value is “profound effect”. The “effect on intracellular routing of VT1 B” value with XF-498 cells [4] was “marked change in the intracellular routing”. For the same compound, in the assay with Gb3 in XF-498 cells (setting [5]), the “change in slower migrating Gb3 band” value is listed as “dramatic, selective increase”. The “fatty acid content of the slow migrating Gb3 species” value in the assay on Gb3 of XF-498 cells is “markedly increased C16 and decreased C24 fatty acid content”. The “increase in XF-498 cell sensitivity to VT1” value in the assay on XF-498 cells [3] (cells cultured in 2 mM sodium butyrate) is on record as 5000 fold.
On to `CCCCCC(=O)O` [capronate], for which the “effect on morphology of XF-498 cells” value in the assay on XF-498 cells [2] is on record as “no effect”. Also, in the assay on Gb3 in XF-498 cells, the “change in slower migrating Gb3 band” value is listed as “no effect”. For the same compound, the “effect on XF-498 cell sensitivity to VT1 (in words)” value in the assay with XF-498 cells [3] is recorded as “no effect”.
Take `CCC(=O)O` [propionate]: the “effect on morphology of XF-498 cells” value in the assay on XF-498 cells [2] is “similar, but less significant, morphological change”. In the assay on Gb3 in XF-498 cells (setting [5]), the “change in slower migrating Gb3 band” value is reported as “selectively increased, but to a lesser extent”. For the same compound, in the assay on XF-498 cells [3], the “effect on XF-498 cell sensitivity to VT1 (in words)” value is listed as “increased to a lesser extent”.
